Assay results published in PubChem BioAssay (NCI).
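Grown in 96-well plates, cells were treated for 48 hours with each compound at five concentrations. Insufficient inhibition: endpoint recorded as highest concentration tested. GI50 = concentration required for 50% inhibition of growth. TGI denotes the concentration required for complete inhibition of growth.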

Experiments:
Assay in all cases: NCI-60 cell line screen, 48 h
HS 578T breast = test system: HS 578T breast
UACC-62 melanoma = test system: UACC-62 melanoma
SF-268 CNS = test system: SF-268 CNS
OVCAR-8 ovarian = test system: OVCAR-8 ovarian
SK-MEL-5 melanoma = test system: SK-MEL-5 melanoma
K-562 leukemia = test system: K-562 leukemia
MOLT-4 leukemia = test system: MOLT-4 leukemia
PC-3 prostate = test system: PC-3 prostate
DU-145 prostate = test system: DU-145 prostate
NCI-H460 lung = test system: NCI-H460 lung
M14 melanoma = test system: M14 melanoma

Compound | TGI (HS 578T breast) | TGI (UACC-62 melanoma) | TGI (SF-268 CNS) | TGI (OVCAR-8 ovarian) | TGI (SK-MEL-5 melanoma) | TGI (K-562 leukemia) | TGI (MOLT-4 leukemia) | TGI (PC-3 prostate) | TGI (DU-145 prostate) | TGI (NCI-H460 lung) | TGI (M14 melanoma) | GI50 (HS 578T breast) | GI50 (UACC-62 melanoma) | GI50 (SF-268 CNS) | GI50 (SK-MEL-5 melanoma) | GI50 (K-562 leukemia) | GI50 (MOLT-4 leukemia) | GI50 (PC-3 prostate) | GI50 (DU-145 prostate)
NC1=NN(c2ccccc2)C2(c3ccncc3C(=O)O)C1C(N)=NN2c1ccccc1 (stereo unspecified) | > 100 µM | > 100 µM | > 100 µM | > 100 µM | > 100 µM | > 100 µM | > 100 µM | > 100 µM | > 100 µM | > 100 µM | > 100 µM | – | – | – | – | – | – | – | –
COc1ccc(C(=O)Cn2c(C(C)=O)nc3ccccc32)cc1 | > 100 µM | > 92.9 µM | > 100 µM | > 44.5 µM | > 100 µM | > 100 µM | > 100 µM | > 100 µM | > 100 µM | > 61.7 µM | > 100 µM | – | – | – | – | – | – | – | –
CC1(C)CCCCCC(C)(CCCCCCCCCCCO)C1=O (stereo unspecified) | 32.4 µM | 29.4 µM | 30.2 µM | 31.2 µM | 31.3 µM | 31 µM | 46.3 µM | 30 µM | 31.8 µM | 31.9 µM | – | – | – | – | – | – | – | – | –
COc1ccc(-c2oc3cc(OC)c(OC)c(OC)c3c(=O)c2OC)cc1OC | > 100 µM | > 100 µM | > 100 µM | > 100 µM | > 100 µM | > 100 µM | > 100 µM | > 100 µM | > 100 µM | > 100 µM | > 100 µM | – | – | – | – | – | – | – | –
COc1ccc(/C=C(\C(=O)OCC(C)C)c2ccc(OC)c(OC)c2)cc1OC | > 100 µM | > 100 µM | > 100 µM | > 100 µM | > 100 µM | > 100 µM | > 100 µM | > 100 µM | > 100 µM | > 100 µM | > 100 µM | – | – | – | – | – | – | – | –
O=NNc1cnccn1 | > 1250 µM | > 1220 µM | > 1250 µM | > 1250 µM | > 1250 µM | > 1250 µM | 876 µM | > 1250 µM | > 1250 µM | > 1250 µM | > 1250 µM | – | – | – | – | – | – | – | –
CC(=O)O[C@H]1CC[C@H]2[C@@H]3CCC4=C(C(=O)C=CC4(C)OC(C)=O)[C@H]3CC[C@]12C (stereo partly specified) | > 100 µM | 74.5 µM | > 100 µM | > 100 µM | > 100 µM | > 100 µM | > 100 µM | > 100 µM | > 100 µM | > 100 µM | > 100 µM | – | – | – | – | – | – | – | –
CCOC(=O)NC(NNc1ccc([N+](=O)[O-])cc1[N+](=O)[O-])(C(F)(F)F)C(F)(F)F | > 100 µM | > 100 µM | > 100 µM | > 100 µM | > 100 µM | > 100 µM | > 100 µM | > 100 µM | > 100 µM | > 100 µM | > 100 µM | – | – | – | – | – | – | – | –
CC(=O)OCC1OC(n2c3c(cc(C#N)c2=S)CCCCCC3)C(OC(C)=O)C(OC(C)=O)C1OC(C)=O (stereo unspecified) | > 100 µM | > 100 µM | > 100 µM | > 100 µM | > 100 µM | > 100 µM | > 100 µM | > 100 µM | > 100 µM | > 100 µM | > 100 µM | – | – | – | – | – | – | – | –
COP(=O)(OC)C(O)/C=C(\Cl)c1ccc(Cl)cc1 (stereo unspecified) | > 100 µM | > 100 µM | > 100 µM | 54.6 µM | 67.8 µM | > 100 µM | 86.1 µM | > 100 µM | > 100 µM | > 100 µM | > 100 µM | – | – | – | – | – | – | – | –
C[N+](C)(C)C1(C(=O)[O-])CC1 | > 100 µM | – | > 100 µM | > 100 µM | > 100 µM | > 100 µM | > 100 µM | > 100 µM | > 100 µM | > 100 µM | > 100 µM | – | – | – | – | – | – | – | –
Cc1nn(-c2ccccc2)c2c1C(c1cc3ccccc3nc1Cl)NC(=S)N2 (stereo unspecified) | > 100 µM | > 100 µM | > 100 µM | 82.2 µM | > 100 µM | > 100 µM | > 100 µM | > 100 µM | > 100 µM | > 100 µM | > 100 µM | – | – | – | – | – | – | – | –
c1cc2cc(c1)CN1CCNCCN(CCNCC1)Cc1cccc(c1)CN1CCNCCN(CCNCC1)C2 | > 100 µM | > 100 µM | > 100 µM | > 100 µM | > 100 µM | > 100 µM | > 100 µM | > 100 µM | > 100 µM | > 100 µM | > 100 µM | – | – | – | – | – | – | – | –
O=Cc1[nH]c(=O)[nH]c(=O)c1CCl | > 100 µM | > 100 µM | > 100 µM | > 100 µM | > 100 µM | > 100 µM | > 100 µM | > 100 µM | > 100 µM | 99.5 µM | – | – | – | – | – | – | – | – | –
COc1cc(CNC(=O)[C@H](Cc2ccc(O)cn2)NC(C)=O)cc(OC)c1 | > 100 µM | > 100 µM | > 100 µM | – | > 100 µM | > 100 µM | > 100 µM | > 100 µM | > 100 µM | > 100 µM | > 100 µM | – | – | – | – | – | – | – | –
O=C(N1CCC(CN=c2cc3n(-c4ccc(Cl)cc4)c4ccccc4nc-3cc2Nc2ccc(Cl)cc2)CC1)N1CC1 | 3.54 µM | 3.47 µM | 3.69 µM | – | 2.81 µM | – | 3.91 µM | 3.38 µM | 2.65 µM | – | – | 1.48 µM | 1.92 µM | 1.3 µM | 1.49 µM | 0.286 µM | 0.792 µM | 1.63 µM | 1.3 µM
O/N=C1/CCCCCC1NO (stereo unspecified) | > 100 µM | > 100 µM | > 100 µM | > 100 µM | > 100 µM | – | > 100 µM | > 100 µM | > 100 µM | > 100 µM | > 100 µM | – | – | – | – | – | – | – | –
COc1cc(S(=O)(=O)Nc2ccc(-c3csc(N4C(=O)C(C)SC4c4ccccc4O)n3)cc2)ccc1Cl (stereo unspecified) | 90.4 µM | > 100 µM | 49.9 µM | > 100 µM | > 100 µM | > 100 µM | > 100 µM | > 100 µM | > 100 µM | – | > 100 µM | – | – | – | – | – | – | – | –
COc1ccc(C(=O)/C=C/c2ccc(OCC(=O)O)cc2)cc1 | > 100 µM | > 100 µM | > 100 µM | > 100 µM | > 100 µM | > 100 µM | > 100 µM | > 100 µM | > 100 µM | – | > 100 µM | – | – | – | – | – | – | – | –
Cn1c(=O)c2c(ncn2CCSS(=O)(=O)O)n(C)c1=O | > 100 µM | > 100 µM | > 100 µM | > 100 µM | > 100 µM | > 100 µM | – | > 100 µM | > 100 µM | > 100 µM | > 100 µM | – | – | – | – | – | – | – | –
